Tests used:
Assay in all cases: relative viability (nuclei count vs DMSO), 5 days (fraction); higher = more cells survive
[1] = compound: C1CNCCC1C2=CC(=NN2)C3=CC=NC=C3 + Cc1nc(NC(=O)N2CCC[C@H]2C(N)=O)sc1-c1ccnc(C(C)(C)C(F)(F)F)c1 [Alpelisib] (partner 2 µM)
In short: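 Relative viability equals treated-well nuclei counts divided by vehicle-well nuclei counts. Counts came from 4× images of lung cancer cell lines grown in 1536-well plates for 5 days after pin-tool dosing on the day after seeding. Dosing used one drug alone or a fixed anchor-drug dose plus five library-drug doses (not always all listed) in √10 steps, and values are medians of duplicate plates.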

[2] = compound: O[C@H]1CC[C@H](Nc2ncc3nc(Nc4c(F)cc(F)cc4F)n([C@H]4CCOC4)c3n2)CC1 [Tanzisertib]
In short: (§1)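 For viability, nuclei in each treated well were divided by nuclei in vehicle wells and the median across plates was taken. Lung cancer cell lines in 1536-well plates were pinned with five library-drug doses (not always all listed) spaced by √10, cultured 5 days without medium change, and imaged at 4× after Hoechst staining, with plates passing only at control CV below 25% and at least one doubling.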

[3] = compound: C1CNCCC1C2=CC(=NN2)C3=CC=NC=C3
In short: as §1

[4] = compound: C[C@@H](N)c1ccc(C(=O)Nc2ccnc3[nH]ccc23)cc1
In short: as §1

| Cell Line | relative viability ([1]; first compound 0.08 µM) | relative viability ([1]; first compound 0.8 µM) | relative viability ([1]; first compound 2.53 µM) | relative viability ([1]; first compound 8 µM) | relative viability ([2]; 0.08 µM) | relative viability ([2]; 0.253 µM) | relative viability ([2]; 0.8 µM) | relative viability ([2]; 2.53 µM) | relative viability ([2]; 8 µM) | relative viability ([3]; 0.08 µM) | relative viability ([3]; 0.8 µM) | relative viability ([3]; 2.53 µM) | relative viability ([3]; 8 µM) | relative viability ([4]; 0.04 µM) | relative viability ([4]; 0.1265 µM) | relative viability ([4]; 0.4 µM) | relative viability ([4]; 1.265 µM) | relative viability ([4]; 4 µM) |
| --- | --- | --- | --- | --- | --- | --- | --- | --- | --- | --- | --- | --- | --- | --- | --- | --- | --- | --- |
| NCI-H2170 | 0.734 | 0.761 | 0.81 | 0.684 | 1.11 | 0.96 | 0.992 | 0.977 | 0.887 | 0.834 | 0.978 | 0.939 | 0.984 | 1.1 | 0.992 | 1 | 0.926 | 0.936 |
| HCC-366 | 0.561 | 0.233 | 0.426 | 0.378 | 0.981 | 1.03 | 1.01 | 0.993 | 0.487 | 0.969 | 0.995 | 1.01 | 0.999 | 1.01 | 1.04 | 1.09 | – | 1.03 |
| NCI-H2347 | 0.989 | 0.938 | 1.17 | 1.01 | 1.11 | 0.956 | 1.06 | 1.08 | 0.965 | 1.01 | 0.869 | 1.08 | 1.12 | 0.971 | 0.995 | 1.14 | 0.816 | 0.956 |
| COR-L 105 | 0.954 | 1.05 | 1.11 | 0.852 | 1.08 | 0.899 | 0.918 | 1.15 | 0.706 | 0.857 | 0.925 | 1.02 | 0.923 | 0.91 | 0.964 | 1.11 | 0.7 | 0.735 |
| 201T | 1.06 | 0.841 | 1.04 | 1.04 | 1 | 0.969 | 0.997 | 0.933 | 0.898 | 0.97 | 0.993 | 0.983 | 0.938 | 1.01 | 0.971 | 1.01 | 0.976 | 1.12 |
| NCI-H2126 | 0.761 | 0.634 | 0.777 | 0.752 | 1.01 | 1.08 | 1.03 | 0.983 | 0.893 | 0.944 | 0.969 | 1.06 | 1.02 | 1.06 | 0.999 | 0.994 | 0.889 | 1.1 |
| LC-2-ad | 0.791 | 0.751 | 0.913 | 0.934 | 1.1 | 1.03 | 1.09 | 1.03 | 0.506 | 0.978 | 1.09 | 1 | 0.964 | 0.916 | 0.916 | 1.02 | 0.719 | 0.838 |
| NCI-H2085 | 0.926 | 0.514 | 1.02 | 0.98 | 0.987 | 0.991 | 1.02 | 1.03 | 0.976 | 1.09 | – | 1.01 | 0.983 | 0.944 | 0.96 | 0.958 | 0.935 | 0.861 |

From the supplement of paper PMC10307832
